In brackets after ≈: the same amount, converted by molar mass.
How the values were obtained:
[1] = Solubility of the compound in FaSSIF; assay type: physicochemical
Cytochrome P450 2C8 = target: T1, Cytochrome P450 2C8 (Homo sapiens, UniProt P10632); assay: Inhibition of CYP2C8 (unknown origin); assay type: ADME
T1 sequence (P10632 whole entry): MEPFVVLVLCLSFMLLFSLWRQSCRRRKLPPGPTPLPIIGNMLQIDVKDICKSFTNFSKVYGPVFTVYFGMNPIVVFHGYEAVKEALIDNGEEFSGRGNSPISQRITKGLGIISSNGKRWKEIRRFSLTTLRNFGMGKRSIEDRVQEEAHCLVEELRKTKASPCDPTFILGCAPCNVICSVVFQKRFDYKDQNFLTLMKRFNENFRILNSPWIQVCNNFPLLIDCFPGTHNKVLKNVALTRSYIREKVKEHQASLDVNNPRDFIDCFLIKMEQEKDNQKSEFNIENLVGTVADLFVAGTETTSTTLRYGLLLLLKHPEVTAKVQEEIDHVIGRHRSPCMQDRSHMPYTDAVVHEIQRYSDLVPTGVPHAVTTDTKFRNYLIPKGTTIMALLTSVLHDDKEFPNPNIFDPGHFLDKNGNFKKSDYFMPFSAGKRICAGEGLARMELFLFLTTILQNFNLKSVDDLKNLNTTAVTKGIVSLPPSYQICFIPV

[2] = Genotoxicity in Salmonella typhimurium TA102; assay type: toxicity; conditions: salmonella enterica subsp. enterica serovar typhimurium
[3] = Microsomal metabolic stability in human liver microsomes assessed as half life; assay type: ADME, Microsome
[4] = Hepatic metabolic stability in mouse hepatocyte assessed as half life; assay type: ADME, cell-based; conditions: hepatocytes
Cytochrome P450 1A2 = target: T2, Cytochrome P450 1A2 (Homo sapiens, UniProt P05177); assay: Inhibition of CYP1A2 (unknown origin); assay type: ADME
T2 sequence (P05177 whole entry): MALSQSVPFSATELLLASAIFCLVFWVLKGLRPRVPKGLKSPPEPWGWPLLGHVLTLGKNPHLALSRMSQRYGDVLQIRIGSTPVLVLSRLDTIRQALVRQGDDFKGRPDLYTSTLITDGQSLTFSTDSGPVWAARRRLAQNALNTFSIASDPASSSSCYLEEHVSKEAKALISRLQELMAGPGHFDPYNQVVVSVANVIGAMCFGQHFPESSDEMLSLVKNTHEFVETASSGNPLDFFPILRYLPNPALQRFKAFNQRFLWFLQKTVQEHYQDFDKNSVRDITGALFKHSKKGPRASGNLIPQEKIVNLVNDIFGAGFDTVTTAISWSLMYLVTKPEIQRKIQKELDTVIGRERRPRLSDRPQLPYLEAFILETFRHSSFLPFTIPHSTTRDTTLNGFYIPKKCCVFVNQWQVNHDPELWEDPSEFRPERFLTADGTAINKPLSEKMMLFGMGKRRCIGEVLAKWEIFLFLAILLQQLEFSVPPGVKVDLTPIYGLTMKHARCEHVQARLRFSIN

[5] = AUCinf in male Sprague-Dawley rat at 2 mg/kg, iv measured upto 24 hrs upto 24 hrs by LC-MS/MS analysis; assay type: ADME, organism-based; conditions: in vivo
Cytochrome P450 3A4 = Cytochrome P450 3A4 (Homo sapiens, UniProt P08684); assay: Inhibition of CYP3A4 (unknown origin); assay type: ADME
Chain of Cytochrome P450 3A4 (P08684 whole entry): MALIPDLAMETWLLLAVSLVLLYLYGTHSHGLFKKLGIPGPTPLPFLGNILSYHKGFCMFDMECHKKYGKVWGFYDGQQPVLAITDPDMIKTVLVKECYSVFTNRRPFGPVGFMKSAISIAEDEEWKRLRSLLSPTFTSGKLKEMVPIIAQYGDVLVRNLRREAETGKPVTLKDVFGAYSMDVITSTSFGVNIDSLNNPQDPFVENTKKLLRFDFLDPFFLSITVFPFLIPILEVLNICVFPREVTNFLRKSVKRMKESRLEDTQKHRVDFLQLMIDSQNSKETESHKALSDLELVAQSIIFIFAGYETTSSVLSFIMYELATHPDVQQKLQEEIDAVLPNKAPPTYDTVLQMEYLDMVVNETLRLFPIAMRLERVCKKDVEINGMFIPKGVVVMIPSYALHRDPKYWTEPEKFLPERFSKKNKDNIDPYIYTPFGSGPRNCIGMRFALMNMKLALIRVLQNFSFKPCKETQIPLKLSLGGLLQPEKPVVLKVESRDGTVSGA

HCT-116 = assay: Antiproliferative activity against MTAP-knock out human HCT-116 cells assessed as maximal inhibition rate at 10 uM measured after 5 days by CTG assay relative to control; assay type: functional; conditions: time 5 day
[6] = target: T3, S-adenosylmethionine synthase isoform type-2 (Homo sapiens, UniProt P31153); assay: Inhibition of MAT2A in MTAP-knock out human HCT-116 cells assessed as inhibition of S-adenosylmethionine level; assay type: cell-based
T3 sequence (P31153 whole entry, canonical isoform): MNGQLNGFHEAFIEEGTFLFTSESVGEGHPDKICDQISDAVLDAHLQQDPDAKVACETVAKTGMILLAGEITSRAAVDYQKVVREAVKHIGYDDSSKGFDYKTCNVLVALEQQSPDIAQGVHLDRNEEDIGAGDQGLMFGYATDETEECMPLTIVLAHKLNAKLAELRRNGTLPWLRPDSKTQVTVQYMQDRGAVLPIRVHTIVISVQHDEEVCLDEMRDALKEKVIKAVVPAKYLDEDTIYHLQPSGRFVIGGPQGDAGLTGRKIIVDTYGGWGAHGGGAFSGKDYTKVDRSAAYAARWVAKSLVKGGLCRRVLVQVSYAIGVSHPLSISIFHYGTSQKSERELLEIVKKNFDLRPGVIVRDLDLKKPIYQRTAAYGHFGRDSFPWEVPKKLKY

[7] = target: T3, S-adenosylmethionine synthase isoform type-2; assay: Inhibition of MAT2A in wild type human HCT-116 cells assessed as inhibition of PRMT5-mediated symmetric […]-arginine (SDMA) level; assay type: cell-based
[8] = Half life in male ICR mouse at 10 mg/kg, po measured upto 24 hrs by LC-MS/MS analysis; assay type: ADME, organism-based; conditions: in vivo
[9] = Genotoxicity in Salmonella typhimurium TA98; assay type: toxicity; conditions: salmonella enterica subsp. enterica serovar typhimurium
[10] = Solubility of the compound in FaSSGF; assay type: physicochemical
[11] = Microsomal metabolic stability in mouse liver microsomes assessed as half life; assay type: ADME, Microsome
[12] = Protein binding in mouse brain assessed as unbound fraction; assay type: ADME, tissue-based
Cytochrome P450 2C9 = Cytochrome P450 2C9 (Homo sapiens, UniProt P11712); assay: Inhibition of CYP2C9 (unknown origin); assay type: ADME
Chain of Cytochrome P450 2C9 (P11712 whole entry): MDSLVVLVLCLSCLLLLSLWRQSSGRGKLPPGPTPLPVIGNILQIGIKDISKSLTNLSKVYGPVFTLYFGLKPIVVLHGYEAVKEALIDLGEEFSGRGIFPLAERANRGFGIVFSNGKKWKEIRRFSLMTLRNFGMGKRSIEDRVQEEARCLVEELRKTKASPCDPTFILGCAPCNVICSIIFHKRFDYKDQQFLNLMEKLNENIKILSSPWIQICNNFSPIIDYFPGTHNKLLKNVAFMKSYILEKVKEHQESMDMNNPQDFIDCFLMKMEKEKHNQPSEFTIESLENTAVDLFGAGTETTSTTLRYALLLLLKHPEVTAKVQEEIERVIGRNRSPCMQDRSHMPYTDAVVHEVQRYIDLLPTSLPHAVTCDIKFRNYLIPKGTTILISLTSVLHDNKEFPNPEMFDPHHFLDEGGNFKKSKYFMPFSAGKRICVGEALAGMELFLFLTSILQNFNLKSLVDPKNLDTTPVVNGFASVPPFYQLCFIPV

[13] = Genotoxicity in Salmonella typhimurium TA1535; assay type: toxicity; conditions: salmonella enterica subsp. enterica serovar typhimurium
[14] = Volume of distribution at steady state in male Sprague-Dawley rat at 2 mg/kg, iv measured upto 24 hrs upto 24 hrs by LC-MS/MS analysis; assay type: ADME, organism-based; conditions: in vivo
[15] = Half life in male ICR mouse at 10 mg/kg, po and 2 mg/kg, iv measured upto 24 hrs; assay type: ADME, organism-based; conditions: in vivo
[16] = Clearance rate in male ICR mouse at 2 mg/kg, iv measured upto 24 hrs by LC-MS/MS analysis; assay type: ADME, organism-based; conditions: in vivo
[17] = Apparent permeability across apical to basolateral in human Caco-2 cells; assay type: ADME, cell-based; conditions: read-out: permeability
[18] = Oral bioavailability in male Sprague-Dawley rat at 10 mg/kg measured upto 24 hrs upto 24 hrs by LC-MS/MS analysis; assay type: ADME, organism-based; conditions: in vivo
[19] = Plasma protein binding in cynomolgus monkey assessed as unbound fraction; assay type: ADME, cell-free, Macaca fascicularis
[20] = Oral bioavailability in male ICR mouse at 10 mg/kg measured upto 24 hrs by LC-MS/MS analysis; assay type: ADME, organism-based; conditions: in vivo
[21] = Cmax in beagle dog at 10 mg/kg, po measured upto 24 hrs upto 24 hrs by LC-MS/MS analysis; assay type: ADME, organism-based, Canis lupus familiaris; conditions: in vivo
[22] = target: T3, S-adenosylmethionine synthase isoform type-2; assay: Inhibition of MAT2A (unknown origin) assessed as release of inorganic phosphate using ATP/L-methionine pre-incubated for 30 mins followed by substrate addition measured after 2.5 hrs by colorimetric assay
Cytochrome P450 2C19 = Cytochrome P450 2C19 (Homo sapiens, UniProt P33261); assay: Inhibition of CYP2C19 (unknown origin); assay type: ADME
Chain of Cytochrome P450 2C19 (P33261 whole entry): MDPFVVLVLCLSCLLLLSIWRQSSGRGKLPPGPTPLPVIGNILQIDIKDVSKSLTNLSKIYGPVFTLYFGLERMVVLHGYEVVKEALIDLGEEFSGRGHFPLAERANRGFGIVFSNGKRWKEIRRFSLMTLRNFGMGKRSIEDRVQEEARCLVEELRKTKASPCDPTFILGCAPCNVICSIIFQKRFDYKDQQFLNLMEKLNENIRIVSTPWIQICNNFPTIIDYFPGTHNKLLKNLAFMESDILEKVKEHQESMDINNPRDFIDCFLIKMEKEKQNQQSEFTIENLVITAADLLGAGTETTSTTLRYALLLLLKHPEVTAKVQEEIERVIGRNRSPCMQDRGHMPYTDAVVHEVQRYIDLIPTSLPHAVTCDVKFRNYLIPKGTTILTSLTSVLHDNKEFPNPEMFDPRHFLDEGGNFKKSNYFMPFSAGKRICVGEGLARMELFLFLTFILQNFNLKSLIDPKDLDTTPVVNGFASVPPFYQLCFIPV

[23] = Half life in beagle dog at 2 mg/kg, iv measured upto 24 hrs upto 24 hrs by LC-MS/MS analysis; assay type: ADME, organism-based, Canis lupus familiaris; conditions: in vivo
[24] = Solubility of the compound in pH 7.4 phosphate buffer; assay type: physicochemical
[25] = AUCinf in male ICR mouse at 10 mg/kg, po measured upto 24 hrs by LC-MS/MS analysis; assay type: ADME, organism-based; conditions: in vivo
[26] = Half life in male Sprague-Dawley rat at 2 mg/kg, iv measured upto 24 hrs upto 24 hrs by LC-MS/MS analysis; assay type: ADME, organism-based; conditions: in vivo
[27] = Plasma protein binding in mouse assessed as unbound fraction; assay type: ADME, cell-free
[28] = AUCinf in male ICR mouse at 2 mg/kg, iv measured upto 24 hrs by LC-MS/MS analysis; assay type: ADME, organism-based; conditions: in vivo
[29] = AUCinf in beagle dog at 10 mg/kg, po measured upto 24 hrs upto 24 hrs by LC-MS/MS analysis; assay type: ADME, organism-based, Canis lupus familiaris; conditions: in vivo
[30] = Microsomal metabolic stability in rat liver microsomes assessed as half life; assay type: ADME, Microsome
[31] = Microsomal metabolic stability in mouse liver microsomes assessed as clearance; assay type: ADME, Microsome; conditions: read-out: CLH
[32] = Cmax in male Sprague-Dawley rat at 10 mg/kg, po measured upto 24 hrs upto 24 hrs by LC-MS/MS analysis; assay type: ADME, organism-based; conditions: in vivo

SMILES	solubility [1]	IC50 (Cytochrome P450 2C8)	Activity [2]	half-life [3]	half-life [4]	IC50 (Cytochrome P450 1A2)	IC50 (Cytochrome P450 3A4)	Imax (HCT-116)	IC50 [6]	IC50 [7]	half-life [8]	Activity [9]	solubility [10]	half-life [11]	fraction unbound [12]	IC50 (Cytochrome P450 2C9)	Activity [13]	Vdss [14]	half-life [15]	clearance [16]	also measured
[2H]C([2H])([2H])NC1=NC(=O)[C@]2(CCc3ncccc32)c2cc(C(C)(F)F)ccc21	208 µM (≈ 71.6 µg/mL)	> 10 µM	Non-toxic	> 3.1 h	> 3.61 h	> 10 µM	> 10 µM	100%	0.004 µM	> 3 µM	2.37 h	Non-toxic	79.9 µM (≈ 27.5 µg/mL)	> 2.46 h	0.148	> 10 µM	Non-toxic	1.95 L/kg	2.24 h	0.547 L/h/kg	AUC ([5]; iv, 2 mg/kg, 24 h): 2.212 µg·h/mL; Papp A→B [17]: 51.2 nm/s; bioavailability ([18]; male, Sprague-Dawley): 135%; fraction unbound [19]: 0.519; bioavailability [20]: 132%; Cmax [21]: 2.14 µg/mL; IC50 [22]: 0.004 µM; IC50 (Cytochrome P450 2C19): > 10 µM; half-life [23]: 6.56 h; solubility [24]: 174 µM (≈ 59.9 µg/mL); AUC(0-inf) [25]: 24.9 µg·h/mL; t1/2 [26]: 2.03 h; fraction unbound [27]: 0.345; AUC(0-inf) [28]: 3.66 µg·h/mL; AUC(0-inf) [29]: 12.3 µg·h/mL; half-life [30]: > 3.1 h; CLint scaled [31]: 2.22 L/h/kg; Cmax [32]: 6.1 µg/mL
[2H]C([2H])([2H])NC1=NC(=O)[C@]2(CCc3ncccc32)c2cc(C(F)(F)F)ccc21	207 µM (≈ 72.1 µg/mL)	> 10 µM	Non-toxic	> 3.1 h	> 3.61 h	> 10 µM	> 10 µM	89.34%	0.004 µM	> 3 µM	2.19 h	Non-toxic	30.9 µM (≈ 10.8 µg/mL)	> 3.1 h	0.113	> 10 µM	Non-toxic	1.84 L/kg	2.17 h	0.479 L/h/kg	AUC(0-inf) ([5]; male, Sprague-Dawley): 4.99 µg·h/mL; Papp A→B [17]: 136 nm/s; F ([18]; po, 10 mg/kg, 24 h): 171%; fraction unbound [19]: 0.562; bioavailability [20]: 97%; Cmax [21]: 1.66 µg/mL; IC50 [22]: 0.004 µM; IC50 (Cytochrome P450 2C19): > 10 µM; half-life [23]: 6.91 h; solubility [24]: 173 µM (≈ 60.3 µg/mL); AUC(0-inf) [25]: 35.8 µg·h/mL; t1/2 [26]: 2.35 h; fraction unbound [27]: 0.276; AUC(0-inf) [28]: 4.19 µg·h/mL; AUC(0-inf) [29]: 13.6 µg·h/mL; half-life [30]: > 3.1 h; CLint scaled [31]: < 1.76 L/h/kg; Cmax [32]: 8.52 µg/mL

Reference: ChEMBL document CHEMBL6121044, “Discovery of Novel Spirocyclic MAT2A Inhibitors Demonstrating High In Vivo Efficacy in MTAP-Null Xenograft Models” (J Med Chem, 2025)
